# From patent publication US8906909B2 (Curis, Inc., priority 2009, dated 2014)
# Like-named read-outs stand apart in the source and are kept apart here.
# Assays:
# [1] = system: HDACs (HeLa cell nuclear extracts); assay: HDAC enzymatic activity, Biomol Color de Lys system; type: biochemical
# Procedure, shortened: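 HeLa nuclear extract as HDAC source with Color de Lys substrate in 50 mM Tris/Cl pH 8.0, 137 mM NaCl, 2.7 mM KCl, 1 mM MgCl2. Serially diluted compounds reacted 1 h at 25 °C, then developer added; fluorescence (Ex 350–380/Em 440–460) fitted sigmoidally for IC50.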
# A375 cells = assay: Cell proliferation assay Method B, A375; type: cell-based; details: Homo sapiens, A-375; Melanoma; Method B; 72 hours; read-out: antiproliferative activity IC50, A375
# Description: (§1) Cancer cell lines were plated at 5,000 to 10,000 per well in 96-well flat bottomed plates with various concentration of compounds. The cells were incubated with compounds for 72 hours in the presence of 0.5% of fetal bovine serum. Growth inhibition was accessed by adenosine triphosphate (ATP) content assay using Promega CellTiter-Glo kit. Promega CellTiter-Glo kit is an ATP monitoring system based on firefly luciferase. Briefly, 16 μl of mammalian cell lysis and substrate solution was added to 84 μl of culture medium per well to lyse the cells and stabilize the ATP. The mixture was shaken and incubated for 30 minutes and subsequently the luminescence was measured.
# H1993 cells [2] = assay: Cell proliferation assay Method A (ATPlite), H1993; type: cell-based; details: Homo sapiens, NCI-H1993, 72 hours, read-out: antiproliferative activity IC50, H1993
# Description: (§2) Cancer cell lines were plated at 5,000 to 10,000 per well in 96-well flat bottomed plates with various concentration of compounds. The cells were incubated with compounds for 72 hours in the presence of 0.5% of fetal bovine serum. Growth inhibition was accessed by adenosine triphosphate (ATP) content assay using Perkin Elmer ATPlite kit. ATPlite is an ATP monitoring system based on firefly luciferase. Briefly, 25 μl of mammalian cell lysis solution was added to 50 μl of phenol red-free culture medium per well to lyse the cells and stabilize the ATP. 25 μl of substrate solution was then added to the well and subsequently the luminescence was measured.
# HCT-118 cells = assay: Cell proliferation assay Method A (ATPlite), HCT-118; type: cell-based; details: 72 hours, read-out: antiproliferative activity IC50, HCT-118
# Description: as §2
# Sk-Mel-28 cells [3] = assay: Cell proliferation assay Method A (ATPlite), Sk-Mel-28; type: cell-based; details: Homo sapiens, 72 hours, read-out: antiproliferative activity IC50, Sk-Mel-28
# Description: as §2
# BT-474 cells = assay: Cell proliferation assay Method A (ATPlite), BT-474; type: cell-based; details: Homo sapiens, 72 hours, read-out: antiproliferative activity IC50, BT-474
# Description: as §2
# MDA-MB-468 cells = assay: Cell proliferation assay Method B, MDA-MB-468; type: cell-based; details: Homo sapiens, 72 hours, read-out: antiproliferative activity IC50, MDA-MB-468
# Description: as §1
# HCC1937 cells = assay: Cell proliferation assay Method B, HCC1937; type: cell-based; details: Homo sapiens, 72 hours, read-out: antiproliferative activity IC50, HCC1937
# Description: as §1
# BT474 cells = assay: Cell proliferation assay Method B, BT474; type: cell-based; details: Homo sapiens, BT-474, 72 hours, read-out: antiproliferative activity IC50, BT474
# Description: as §1
# Sk-Mel-28 cells [4] = assay: Cell proliferation assay Method B, Sk-Mel-28; type: cell-based; details: Homo sapiens, Melanoma, 72 hours, read-out: antiproliferative activity IC50, Sk-Mel-28
# Description: as §1
# U87MG cells = assay: Cell proliferation assay Method B, U87MG; type: cell-based; details: Homo sapiens, U-87 MG, Glioblastoma, 72 hours, read-out: antiproliferative activity IC50, U87MG
# Description: as §1
# H1975 cells = assay: Cell proliferation assay Method B, H1975; type: cell-based; details: Homo sapiens, NCI-H1975, NSCLC, 72 hours, read-out: antiproliferative activity IC50, H1975
# Description: as §1
# H1993 cells [5] = assay: Cell proliferation assay Method B, H1993; type: cell-based; details: Homo sapiens, NCI-H1993, NSCLC, 72 hours, read-out: antiproliferative activity IC50, H1993
# Description: as §1
# RPMI-8226 cells = assay: Cell proliferation assay Method B, RPMI-8226; type: cell-based; details: Homo sapiens, Multiple Myeloma, 72 hours, 0.5% fetal bovine serum, CellTiter-Glo, read-out: antiproliferative activity IC50, RPMI-8226
# Description: as §1
# MDA-MB-436 cells = assay: Cell proliferation assay Method B, MDA-MB-436; type: cell-based; details: Homo sapiens, Breast, Method B, 72 hours, read-out: antiproliferative activity IC50, MDA-MB-436
# Description: as §1
# [6] = 0.5% fetal bovine serum, CellTiter-Glo
# [7] = BT474, 0.5% fetal bovine serum, CellTiter-Glo
# [8] = Sk-Mel-28, 0.5% fetal bovine serum, CellTiter-Glo
# [9] = H1993, 0.5% fetal bovine serum, CellTiter-Glo
IC50 [1] [nM],melting point [°C],IC50 (H1993 cells [2]) [nM],IC50 (HCT-118 cells) [nM],IC50 (BT-474 cells) [nM],IC50 (RPMI-8226 cells) [nM],Structure (SMILES),IC50 (Sk-Mel-28 cells [3]) [nM],IC50 (Sk-Mel-28 cells [4]; [8]) [nM],also measured
< 100,250 to 255,–,–,–,–,"CN(Cc1cc2nc(-c3cc(O)ccc3F)nc(N3CCOCC3)c2s1)c1ncc(C(=O)NO)cn1 [Compound 292, 2-(((2-(2-Fluoro-5-hydroxyphenyl)-4-morpholinothieno[3,2-d]pyrimidin-6-yl)methyl)(methyl)amino)-N-hydroxypyrimidine-5-carboxamide]",–,–,IC50 (A375 cells): < 10 nM
< 100,218 to 220,100 to 1000,100 to 1000,100 to 1000,–,"O=C(NO)c1ccc(NCc2cc3nc(-c4cccc5[nH]ncc45)nc(N4CCOCC4)c3s2)nc1 [Compound 76, 6-((2-(1H-indazol-4-yl)-4-morpholinothieno[3,2-d]pyrimidin-6-yl)methylamino)-N-hydroxynicotinamide]",100 to 1000,–,–
< 100,234 to 237,100 to 1000,100 to 1000,< 100,–,"O=C(NO)c1cnc(NCc2cc3nc(-c4cccc5[nH]ncc45)nc(N4CCOCC4)c3s2)nc1 [Compound 53, 2-((2-(1H-indazol-4-yl)-4-morpholinothieno[3,2-d]pyrimidin-6-yl)methylamino)-N-hydroxypyrimidine-5-carboxamide]",100 to 1000,–,–
< 100,197 to 200,< 100,< 100,< 100,–,"CN(Cc1cc2nc(-c3cccc4[nH]ncc34)nc(N3CCOCC3)c2s1)c1ncc(C(=O)NO)cn1 [Compound 54, 2-(((2-(1H-indazol-4-yl)-4-morpholinothieno[3,2-d]pyrimidin-6-yl)methyl)(methyl)amino)-N-hydroxypyrimidine-5-carboxamide]",< 100,10 to 100,"IC50 (MDA-MB-468 cells; [6]): < 10 nM; IC50 (HCC1937 cells; [6]): 10 to 100 nM; IC50 (BT474 cells; [7]): < 10 nM; IC50 (U87MG cells; U87MG, 0.5% fetal bovine serum, CellTiter-Glo): 10 to 100 nM; IC50 (H1975 cells; H1975, 0.5% fetal bovine serum, CellTiter-Glo): 10 to 100 nM; IC50 (H1993 cells [5]; [9]): 10 to 100 nM"
< 100,148 to 152,–,–,–,< 10,"CN(Cc1cc2nc(-c3cccc(OCCO)c3)nc(N3CCOCC3)c2s1)c1ncc(C(=O)NO)cn1 [Compound 289, 2-({2-[3-(2-Hydroxy-ethoxy)-phenyl]-4-morpholin-4-yl-thieno[3,2-d]pyrimidin-6-ylmethyl}-methyl-amino)-pyrimidine-5-carboxylic acid hydroxyamide]",–,< 10,–
< 100,168 to 172,–,–,–,< 10,"C[C@H](O)c1cccc(-c2nc(N3CCOCC3)c3sc(CN(C)c4ncc(C(=O)NO)cn4)cc3n2)c1 [Compound 296, (S)—N-Hydroxy-2-(((2-(3-(1-hydroxyethyl)phenyl)-4-morpholinothieno[3,2-d]pyrimidin-6-yl)methyl)(methyl)amino)pyrimidine-5-carboxamide]",–,–,–
< 100,–,< 100,< 100,< 100,–,CC(c1cc2nc(-c3cccc4[nH]ncc34)nc(N3CCOCC3)c2s1)N(C)c1ncc(C(=O)NO)cn1 (stereo not drawn) [Compound 70],< 100,–,"IC50 (BT474 cells; Breast, Method B): < 10 nM; IC50 (Sk-Mel-28 cells [4]; SK-MEL-28, Method B): 100 to 1000 nM"
< 100,179 to 183,–,–,–,< 10,"CN(Cc1cc2nc(-c3ccc(N)cc3Cl)nc(N3CCOCC3)c2s1)c1ncc(C(=O)NO)cn1 [Compound 284, 2-(((2-(4-Amino-2-chlorophenyl)-4-morpholinothieno[3,2-d]pyrimidin-6-yl)methyl)(methyl)amino)-N-hydroxypyrimidine-5-carboxamide]",–,–,–
< 100,160 to 164,< 100,< 100,< 100,–,"CN(Cc1cc2nc(-c3cccc(CO)c3)nc(N3CCOCC3)c2s1)c1ncc(C(=O)NO)cn1 [Compound 138, N-hydroxy-2-(((2-(3-(hydroxymethyl)phenyl)-4-morpholinothieno[3,2-d]pyrimidin-6-yl)methyl)(methyl)amino)pyrimidine-5-carboxamide]",< 100,–,"IC50 (MDA-MB-468 cells; Breast, Method B): 10 to 100 nM; IC50 (HCC1937 cells; Breast, Method B): 10 to 100 nM; IC50 (MDA-MB-436 cells): 10 to 100 nM; IC50 (BT474 cells; Breast, Method B): < 10 nM; IC50 (A375 cells): 10 to 100 nM; IC50 (Sk-Mel-28 cells [4]; SK-MEL-28, Method B): 10 to 100 nM; IC50 (U87MG cells; Method B): < 10 nM; IC50 (H1975 cells; Method B): 10 to 100 nM; IC50 (H1993 cells [5]; Method B): 10 to 100 nM"
< 100,200 to 206,< 100,< 100,< 100,–,"CN(C)c1ncc(-c2nc(N3CCOCC3)c3sc(CN(C)c4ncc(C(=O)NO)cn4)cc3n2)cn1 [Compound 117, 2-(((2-(2-(dimethylamino)pyrimidin-5-yl)-4-morpholinothieno[3,2-d]pyrimidin-6-yl)methyl)(methyl)amino)-N-hydroxypyrimidine-5-carboxamide]",< 100,–,–
< 100,215 to 218,–,–,–,100 to 1000,"CNc1ccc(-c2nc(N3CCOCC3)c3sc(C(=O)NCC4CCN(c5ncc(C(=O)NO)cn5)CC4)cc3n2)cn1 [Compound 308, N-((1-(5-(Hydroxycarbamoyl)pyrimidin-2-yl)piperidin-4-yl)methyl)-2-(6-(methylamino)pyridin-3-yl)-4-morpholinothieno[3,2-d]pyrimidine-6-carboxamide]",–,–,–
< 100,–,–,–,–,< 10,"CC(O)c1cccc(-c2nc(N3CCOCC3)c3sc(CN(C)c4ncc(C(=O)NO)cn4)cc3n2)c1 (stereo not drawn) [Compound 294, N-Hydroxy-2-(((2-(3-(1-hydroxyethyl)phenyl)-4-morpholinothieno[3,2-d]pyrimidin-6-yl)methyl)(methyl)amino)pyrimidine-5-carboxamide]",–,< 10,–
< 100,195 to 198,100 to 1000,< 100,< 100,–,"Cc1nc(N)ncc1-c1nc(N2CCOCC2)c2sc(CN(C)c3ncc(C(=O)NO)cn3)cc2n1 [Compound 125, 2-(((2-(2-amino-4-methylpyrimidin-5-yl)-4-morpholinothieno[3,2-d]pyrimidin-6-yl)methyl)(methyl)amino)-N-hydroxypyrimidine-5-carboxamide]",100 to 1000,100 to 1000,IC50 (BT474 cells; [7]): 10 to 100 nM; IC50 (H1993 cells [5]; [9]): 100 to 1000 nM
